The results in this text go back to US9539252B2, “Piperazine-substituted benzothiophene derivatives as antipsychotic agents” (OTSUKA PHARMACEUTICAL CO., LTD., priority 2011, dated 2017).

SMILES strings stand for the structures. Where only a bound is given, the exact number is not on record here.

Series [1] can be described thus: physchem. Particulars: oil or lipid, thermodynamic from solid.
Series [2] in a line: Solubility in oil (sesame oil, benzyl benzoate), visual observation. Conditions: oil or lipid, thermodynamic from solid.

Turning to `O=C(Cc1ccccc1)OCN1C(=O)CCc2ccc(OCCCCN3CCN(c4cccc5sccc45)CC3)cc21` [Example 25, phenylacetic acid 7-[4-(4-benzo[b]thiophen-4-ylpiperazin-1-yl)butoxy]-2-oxo-3,4-dihydro-2H-quinolin-1-ylmethyl ester], in series [1], the solubility was > 100 mg/mL.
On the same count and under the same terms, as for `O=C(Cc1ccccc1)OCn1c(=O)ccc2ccc(OCCCCN3CCN(c4cccc5sccc45)CC3)cc21` [Example 26, phenylacetic acid 7-[4-(4-benzo[b]thiophen-4-ylpiperazin-1-yl)butoxy]-2-oxo-2H-quinolin-1-ylmethyl ester], the figure is > 100 mg/mL.
Take `CCCCOC(=O)OCn1c(=O)ccc2ccc(OCCCCN3CCN(c4cccc5sccc45)CC3)cc21` [Example 168, carbonic acid 7-[4-(4-benzo[b]thiophen-4-ylpiperazin-1-yl)butoxy]-2-oxo-2H-quinolin-1-ylmethyl ester butyl ester]: the solubility in series [2] (benzyl benzoate) is > 100 mg/mL.
As for `CC(C)COC(=O)OCn1c(=O)ccc2ccc(OCCCCN3CCN(c4cccc5sccc45)CC3)cc21` [Example 170, carbonic acid 7-[4-(4-benzo[b]thiophen-4-ylpiperazin-1-yl)butoxy]-2-oxo-2H-quinolin-1-ylmethyl ester isobutyl ester], the solubility in series [2] (benzyl benzoate) is > 100 mg/mL.
`CCCCCCOC(=O)OCn1c(=O)ccc2ccc(OCCCCN3CCN(c4cccc5sccc45)CC3)cc21` [Example 175, carbonic acid 7-[4-(4-benzo[b]thiophen-4-ylpiperazin-1-yl)butoxy]-2-oxo-2H-quinolin-1-ylmethyl ester hexyl ester]: in series [2] (benzyl benzoate), the solubility is > 100 mg/mL.
For the compound `CCCCCCCCCOC(=O)OCn1c(=O)ccc2ccc(OCCCCN3CCN(c4cccc5sccc45)CC3)cc21` [Example 177, carbonic acid 7-[4-(4-benzo[b]thiophen-4-ylpiperazin-1-yl)butoxy]-2-oxo-2H-quinolin-1-ylmethyl ester nonyl ester], the solubility in series [2] (benzyl benzoate) and in series [2] (sesame oil) was > 100 mg/mL throughout.
Consider `CCCCCCCCCCCCCCOC(=O)OCn1c(=O)ccc2ccc(OCCCCN3CCN(c4cccc5sccc45)CC3)cc21` [Example 179, carbonic acid 7-[4-(4-benzo[b]thiophen-4-ylpiperazin-1-yl)butoxy]-2-oxo-2H-quinolin-1-ylmethyl ester tetradecyl ester], for which the solubility in series [2] (benzyl benzoate) and in series [2] (sesame oil) was > 100 mg/mL each time.
Consider `CCCCCCCCCCCCCCCCOC(=O)OCn1c(=O)ccc2ccc(OCCCCN3CCN(c4cccc5sccc45)CC3)cc21` [Example 180, carbonic acid 7-[4-(4-benzo[b]thiophen-4-ylpiperazin-1-yl)butoxy]-2-oxo-2H-quinolin-1-ylmethyl ester hexadecyl ester], for which the solubility in series [2] (benzyl benzoate) and in series [2] (sesame oil) was > 100 mg/mL each time.
As for `CCCCCCCCCCCC(=O)OCOc1ccc2ccc(OCCCCN3CCN(c4cccc5sccc45)CC3)cc2n1` [Example 371, 7-[4-(4-benzo[b]thiophen-4-yl-piperazin-1-yl)-butoxy]-quinolin-2-yloxymethyl dodecanoate], the solubility in series [2] (benzyl benzoate) was > 100 mg/mL.
In the case of `O=C(OCOc1ccc2ccc(OCCCCN3CCN(c4cccc5sccc45)CC3)cc2n1)OC1CCCCC1` [Example 372, 7-[4-(4-benzo[b]thiophen-4-yl-piperazin-1-yl)-butoxy]-quinolin-2-yloxymethyl cyclohexyl carbonate], the solubility in series [2] (benzyl benzoate) is > 100 mg/mL.
For the compound `CCCCCCOC(=O)OCOc1ccc2ccc(OCCCCN3CCN(c4cccc5sccc45)CC3)cc2n1` [Example 373, 7-[4-(4-benzo[b]thiophen-4-yl-piperazin-1-yl)-butoxy]-quinolin-2-yloxymethylhexyl carbonate], the solubility in series [2] (benzyl benzoate) and in series [2] (sesame oil) was > 100 mg/mL in each case.
With `CCCCCCCCCCCC(=O)Oc1ccc2ccc(OCCCCN3CCN(c4cccc5sccc45)CC3)cc2n1` [Example 379, 7-[4-(4-benzo[b]thiophen-4-yl-piperazin-1-yl)-butoxy]-quinolin-2-yl dodecanoate], the solubility in series [2] (benzyl benzoate) and in series [2] (sesame oil) was > 100 mg/mL each time.
Regarding `O=C(Oc1ccc2ccc(OCCCCN3CCN(c4cccc5sccc45)CC3)cc2n1)C1CCCCC1` [Example 380, 7-[4-(4-benzo[b]thiophen-4-yl-piperazin-1-yl)-butoxy]-quinolin-2-yl cyclohexanecarboxylate], the solubility in series [2] (benzyl benzoate) and in series [2] (sesame oil) was > 100 mg/mL each time.
As to `CCCCCCOC(=O)Oc1ccc2ccc(OCCCCN3CCN(c4cccc5sccc45)CC3)cc2n1` [Example 381, 7-[4-(4-benzo[b]thiophen-4-yl-piperazin-1-yl)-butoxy]-quinolin-2-yl hexyl carbonate], the solubility in series [2] (benzyl benzoate) and in series [2] (sesame oil) was > 100 mg/mL each time.
With `CCN(CC)C(=O)Oc1ccc2ccc(OCCCCN3CCN(c4cccc5sccc45)CC3)cc2n1` [Example 382, 7-[4-(4-benzo[b]thiophen-4-yl-piperazin-1-yl)-butoxy]-quinolin-2-yl diethylcarbamate], in series [2] (benzyl benzoate), the solubility was > 100 mg/mL.
On to `CCCCCCCCOC(=O)OCn1c(=O)ccc2ccc(OCCCCN3CCN(c4cccc5sccc45)CC3)cc21` [Example 384, (7-(4-(4-(benzo[b]thiophen-4-yl)piperazin-1-yl)butoxy)-2-oxoquinolin-1(2H)-yl)methyl octyl carbonate], for which the solubility in series [2] (benzyl benzoate) and in series [2] (sesame oil) was > 100 mg/mL throughout.

As a reminder, the solubility is the concentration that dissolves in the medium under given conditions. Read a low solubility as a poorly soluble substance.
